From PubChem BioAssay (NCI)
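Results reflect a 48-hour exposure of cells in 96-well plates to compound at five concentrations. The concentration for full growth arrest is given as TGI.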

Legend:
Test in all cases: NCI-60 cell line screen, 48 h
OVCAR-3 ovarian = system: OVCAR-3 ovarian
EKVX NSCLC = system: EKVX NSCLC
BT-549 breast = system: BT-549 breast
SR leukemia = system: SR leukemia
MALME-3M melanoma = system: MALME-3M melanoma
IGROV1 ovarian = system: IGROV1 ovarian
TK-10 renal = system: TK-10 renal
CAKI-1 renal = system: CAKI-1 renal
OVCAR-5 ovarian = system: OVCAR-5 ovarian
MCF7 breast = system: MCF7 breast
DU-145 prostate = system: DU-145 prostate
HOP-62 NSCLC = system: HOP-62 NSCLC
SW-620 colon = system: SW-620 colon
U251 CNS = system: U251 CNS
OVCAR-8 ovarian = system: OVCAR-8 ovarian
RXF 393 renal = system: RXF 393 renal
A549 NSCLC = system: A549 NSCLC
NCI-H226 lung = system: NCI-H226 lung
NCI-H522 lung = system: NCI-H522 lung
786-0 renal = system: 786-0 renal
UACC-257 melanoma = system: UACC-257 melanoma
K-562 leukemia = system: K-562 leukemia
SNB-75 CNS = system: SNB-75 CNS
NCI-H460 lung = system: NCI-H460 lung
HOP-92 NSCLC = system: HOP-92 NSCLC
NCI-H23 lung = system: NCI-H23 lung
HS 578T breast = system: HS 578T breast
UO-31 renal = system: UO-31 renal
KM12 colon = system: KM12 colon
SNB-19 CNS = system: SNB-19 CNS
RPMI-8226 leukemia = system: RPMI-8226 leukemia
SK-MEL-2 melanoma = system: SK-MEL-2 melanoma
HCT-116 colon = system: HCT-116 colon
MDA-N = system: MDA-N
A498 renal = system: A498 renal
MDA-MB-231 breast = system: MDA-MB-231 breast
SF-268 CNS = system: SF-268 CNS
HCC-2998 colon = system: HCC-2998 colon
HCT-15 colon = system: HCT-15 colon
HT29 colon = system: HT29 colon
PC-3 prostate = system: PC-3 prostate
OVCAR-4 ovarian = system: OVCAR-4 ovarian
CCRF-CEM leukemia = system: CCRF-CEM leukemia
SN12C renal = system: SN12C renal
SF-295 CNS = system: SF-295 CNS
M14 melanoma = system: M14 melanoma
SF-539 CNS = system: SF-539 CNS
SK-MEL-5 melanoma = system: SK-MEL-5 melanoma
MOLT-4 leukemia = system: MOLT-4 leukemia
ACHN renal = system: ACHN renal
SK-MEL-28 melanoma = system: SK-MEL-28 melanoma
HL-60(TB) leukemia = system: HL-60(TB) leukemia
T-47D breast = system: T-47D breast
MDA-MB-435 = system: MDA-MB-435
COLO 205 colon = system: COLO 205 colon
UACC-62 melanoma = system: UACC-62 melanoma
NCI/ADR-RES ovarian = system: NCI/ADR-RES ovarian
SK-OV-3 ovarian = system: SK-OV-3 ovarian

O=C(O)c1ccc(C2SCc3nc4ccccc4n32)cc1 (configuration not stated)
TGI (OVCAR-3 ovarian): > 100 µM
TGI (EKVX NSCLC): > 100 µM
TGI (BT-549 breast): > 100 µM
TGI (SR leukemia): > 100 µM
TGI (MALME-3M melanoma): > 100 µM
TGI (IGROV1 ovarian): > 100 µM
TGI (TK-10 renal): > 100 µM
TGI (CAKI-1 renal): > 100 µM
TGI (OVCAR-5 ovarian): > 100 µM
TGI (MCF7 breast): > 100 µM
TGI (DU-145 prostate): > 100 µM
TGI (HOP-62 NSCLC): > 100 µM
TGI (SW-620 colon): > 100 µM
TGI (U251 CNS): > 100 µM
TGI (OVCAR-8 ovarian): > 100 µM
TGI (RXF 393 renal): > 100 µM
TGI (A549 NSCLC): > 100 µM
TGI (NCI-H226 lung): > 100 µM
TGI (NCI-H522 lung): > 100 µM
TGI (786-0 renal): > 100 µM
TGI (UACC-257 melanoma): > 100 µM
TGI (K-562 leukemia): > 100 µM
TGI (SNB-75 CNS): > 100 µM
TGI (NCI-H460 lung): > 100 µM
TGI (HOP-92 NSCLC): > 100 µM
TGI (NCI-H23 lung): > 100 µM
TGI (HS 578T breast): > 100 µM
TGI (UO-31 renal): > 100 µM
TGI (KM12 colon): > 100 µM
TGI (SNB-19 CNS): > 100 µM
TGI (RPMI-8226 leukemia): > 100 µM
TGI (SK-MEL-2 melanoma): > 100 µM
TGI (HCT-116 colon): > 100 µM
TGI (MDA-N): > 100 µM
TGI (A498 renal): > 100 µM
TGI (MDA-MB-231 breast): > 100 µM
TGI (SF-268 CNS): > 100 µM
TGI (HCC-2998 colon): > 100 µM
TGI (HCT-15 colon): > 100 µM
TGI (HT29 colon): > 100 µM
TGI (PC-3 prostate): > 100 µM
TGI (OVCAR-4 ovarian): > 100 µM
TGI (CCRF-CEM leukemia): > 100 µM
TGI (SN12C renal): > 100 µM
TGI (SF-295 CNS): > 100 µM
TGI (M14 melanoma): > 100 µM
TGI (SF-539 CNS): > 100 µM
TGI (SK-MEL-5 melanoma): > 100 µM
TGI (MOLT-4 leukemia): > 100 µM
TGI (ACHN renal): > 100 µM
TGI (SK-MEL-28 melanoma): > 100 µM
TGI (HL-60(TB) leukemia): > 100 µM

O=c1c2cc(Cl)cc(Cl)c2oc2nc3n(c(=O)c12)CCCS3
TGI (OVCAR-3 ovarian): > 100 µM
TGI (EKVX NSCLC): > 100 µM
TGI (BT-549 breast): > 100 µM
TGI (SR leukemia): > 100 µM
TGI (MALME-3M melanoma): > 100 µM
TGI (IGROV1 ovarian): > 100 µM
TGI (TK-10 renal): > 100 µM
TGI (CAKI-1 renal): > 100 µM
TGI (OVCAR-5 ovarian): > 100 µM
TGI (MCF7 breast): > 100 µM
TGI (DU-145 prostate): > 100 µM
TGI (HOP-62 NSCLC): > 100 µM
TGI (T-47D breast): > 100 µM
TGI (SW-620 colon): > 100 µM
TGI (U251 CNS): > 100 µM
TGI (RXF 393 renal): > 100 µM
TGI (A549 NSCLC): > 100 µM
TGI (NCI-H226 lung): > 100 µM
TGI (NCI-H522 lung): 81.6 µM
TGI (786-0 renal): > 100 µM
TGI (MDA-MB-435): > 100 µM
TGI (UACC-257 melanoma): > 100 µM
TGI (COLO 205 colon): > 100 µM
TGI (K-562 leukemia): > 100 µM
TGI (SNB-75 CNS): > 100 µM
TGI (NCI-H460 lung): > 100 µM
TGI (HOP-92 NSCLC): > 100 µM
TGI (NCI-H23 lung): > 100 µM
TGI (UACC-62 melanoma): > 100 µM
TGI (HS 578T breast): > 100 µM
TGI (UO-31 renal): 40.4 µM
TGI (NCI/ADR-RES ovarian): > 100 µM
TGI (KM12 colon): > 100 µM
TGI (SNB-19 CNS): > 100 µM
TGI (RPMI-8226 leukemia): > 100 µM
TGI (SK-MEL-2 melanoma): > 100 µM
TGI (HCT-116 colon): > 100 µM
TGI (MDA-N): > 100 µM
TGI (A498 renal): > 100 µM
TGI (MDA-MB-231 breast): > 100 µM
TGI (SF-268 CNS): > 100 µM
TGI (HCC-2998 colon): > 100 µM
TGI (HCT-15 colon): > 100 µM
TGI (PC-3 prostate): > 100 µM
TGI (SK-OV-3 ovarian): > 100 µM
TGI (OVCAR-4 ovarian): > 100 µM
TGI (CCRF-CEM leukemia): > 100 µM
TGI (SN12C renal): > 100 µM
TGI (SF-295 CNS): > 100 µM
TGI (M14 melanoma): > 100 µM
TGI (SF-539 CNS): > 100 µM
TGI (SK-MEL-5 melanoma): > 100 µM
TGI (MOLT-4 leukemia): > 100 µM
TGI (ACHN renal): > 100 µM
TGI (SK-MEL-28 melanoma): > 100 µM
